The source of these data is patent US8232301B2, “Pesticidal compositions” (Dow AgroScience, LLC., priority 2008, dated 2012).

For the experiment, the system named is green peach aphid, Myzus persicae (GPA). Briefly: Foliar spray test of Compound A, nonionic surfactant and AMS combinations on green peach aphid on cabbage. In kind it is in vivo. To be noted: for Aphid count/plant / % Control (negative values to 0) / Calculated Colby Value: Rep 1-4; for T-Test Results (synergy mark): measured vs Colby, two-sided T-test. Here is the method: Materials and Methods. Solutions of nonionic surfactant (Atlox 4991 0.125% and 0.25% V/V; 1250 and 2500 ppm respectively) and ammonium sulfate (“AMS” 10,200 and 20,400 ppm) were prepared in 500 mL of water. Water used to prepare all solutions was obtained from a Milli Q water purification system. Combination mixtures were created by adding surfactant to aliquots of AMS and water solution to create all two-way combinations of surfactant and AMS. A 500 ppm stock solution of Compound A in water was prepared by adding […] of Compound A to 40 mL of water. 62.4 μL of this 500 ppm solution was added to 20 mL of each AMS, surfactant, or surfactant and AMS solution to create 1.56 ppm Compound A high rate solutions. These high rate solutions of Compound A and surfactant, Compound A and AMS, or Compound A, AMS, and surfactant, were serially diluted in two-fold increments with the appropriate surfactant, AMS, or AMS and surfactant combination solutions, to create a dilution series from 1.56 to 0.19 ppm. A dilution series of Compound A in water with no surfactant or AMS was also prepared. All solutions of surfactant, AMS, or surfactant and AMS, were tested without Compound A. Two-to-three-leaf stage cabbage plants were infested on day 1 with green peach aphid, Myzus persicae (GPA), by transferring aphid infested foliage to each plant. A uniform number of aphids were transferred based on visual inspection of the infested foliage. Plants were sprayed on all surfaces to wet using a hand held aspirator type sprayer on day 2. Four replicates of each treatment combination were sprayed and all stages of live aphids on each plant were counted on day 4. Data were converted to percent control based on the number of aphids in the unsprayed check treatment. Counts of aphids on unsprayed check plants were used to calculate control for surfactant and AMS solutions. Additionally, the average aphid count on the unsprayed check treatment was used to calculate percent control values for plants sprayed with only Compound A. Aphid counts from plants treated with combinations of Compound A and AMS, surfactant, or AMS and surfactant, were converted to percent control by using the average aphid count from the unsprayed check treatment. Negative percent control values were changed to zero percent control values before assessing treatment combinations for synergy. […] Measured efficacy (percent Control) data were compared to calculated Colby values (Colby, S. R. 1967. Calculating Synergistic and Antagonistic Responses of Herbicide Combinations. Weeds 15:20-22) using a two-sided T-test (Minitab).

Setting [1] is: A 0.19 ppm + NS 1250 ppm + AMS 10,200 ppm.
[2] abbreviates: A 0.19 ppm + NS 1250 ppm + AMS 20,400 ppm.
[3] abbreviates: A 0.19 ppm + NS 2500 ppm + AMS 10,200 ppm.
[4] abbreviates: A 0.19 ppm + NS 2500 ppm + AMS 20,400 ppm.
The mark [5] stands for this setting: treatment #12: A 0.19 ppm + AMS 20,400 ppm.
Setting [6] is: treatment #14: A 0.19 ppm + NS 1250 ppm + AMS 20,400 ppm.
Setting [7] is: treatment #15: A 0.19 ppm + NS 2500 ppm + AMS 20,400 ppm.
Setting [8] is: treatment #16: A 0.19 ppm + NS 1250 ppm + AMS 10,200 ppm.

The structures appear in SMILES notation. Values joined by “and” are separate entries in the source; they are usually repeats but may differ in a detail not shown here. Equal entries are not always repeated. Marks after values point to notes of the source that are not given here.

On to `N.N.O=S(=O)(O)O` [AMS, ammonium sulfate], for which the Aphid count/plant (treatment #4: AMS 20,400 ppm alone) was 35 and 36 and 38 and 31. Besides, the “% Control (negative values to 0)” value (treatment #5: AMS 10,200 ppm alone) was found to be 0.0%.
As to `CC(c1ccc(C(F)(F)F)nc1)S(C)(=O)=NC#N` (stereo not drawn) [Compound A], the “% Control Colby Calculated, Mean” value reads like this: (A 0.19 ppm + AMS 10,200 ppm) 43%; (A 0.19 ppm + AMS 20,400 ppm) 55.58%; (A 0.19 ppm + NS 1250 ppm) 58.28%; under setting [1], 58.28%; under setting [2], 60.1%; (A 0.19 ppm + NS 2500 ppm) 57%. In addition, the “% Control Colby Calculated, Mean” value is reported as 57% under setting [3] and 63.3% under setting [4]. Moreover, the “% Control Measured, Mean” value is recorded as 32% (A 0.19 ppm + AMS 10,200 ppm); 38.3% (A 0.19 ppm + AMS 20,400 ppm); 76.4% (A 0.19 ppm + NS 1250 ppm); 93.28% under setting [1]; 91.1% under setting [2]; 63.7% (A 0.19 ppm + NS 2500 ppm). Further, the “% Control Measured, Mean” value is on record as 80% under setting [3] and 96.33% under setting [4]. Moreover, the “T-Test Results (synergy mark)” value is “T = 6.60 P = 0.0027***” under setting [1], “T = 3.26 P = 0.022***” under setting [2] and “T = 3.68 P = 0.035***” under setting [4]. Besides, the synergy result runs as follows: (A 0.19 ppm combined with AMS and surfactant, three of 4 possible mixtures statistically supported) “significant synergy”; (A 0.19 ppm combined with surfactant or AMS (two-way mixtures), 0.05% level) “no instances where synergy could be supported”. Also, the efficacy entry (A at concentrations of 1.56, 0.78 and 0.39, not combined with surfactant or AMS) was “great enough that identifying synergy was not practical”. Besides, the “% Control (negative values to 0)” value reads like this: (treatment #10: A 0.19 ppm + NS 1250 ppm) 85.4% and 98.1% and 64.3% and 57.9%; under setting [6], 97.9% and 98.1% and 100.0% and 68.4%; under setting [7], 95.8% and 100.0% and 89.5%; under setting [8], 97.9% and 96.3% and 100.0% and 78.9%; (treatment #17: A 0.19 ppm + NS 2500 ppm + AMS 10,200 ppm) 72.9% and 98.1% and 85.7% and 63.2%. In addition, the “Calculated Colby Value” (treatment #10: A 0.19 ppm + NS 1250 ppm, predicted % control) was 53.6% and 63.2% and 60.2% and 56.1%; the “Calculated Colby Value” under setting [5] is 56.5% and 64.4% and 43.9% and 57.5%; the “Calculated Colby Value” under setting [6] was 53.6% and 63.2% and 48.7% and 74.8%; the “Calculated Colby Value” under setting [7] is 60.2% and 63.2% and 43.9% and 85.8%; the “Calculated Colby Value” under setting [8] is 53.6% and 63.2% and 60.2% and 56.1%. Moreover, the Aphid count/plant runs as follows: under setting [5], 19 and 24 and 20; (treatment #13: A 0.19 ppm + AMS 10,200 ppm) 23 and 30 and 28 and 17.
